The CC50 is the concentration that lowers cell viability or growth by half. Higher therefore signals better tolerance by the cells.

Our source for the CC50 values is publication PMC6792352, “Limited Chemical Structural Diversity Found to Modulate Thyroid Hormone Receptor in the Tox21 Chemical Library” (Environmental Health Perspectives, 2019).

Structures can show the parent of a compound that is named as a salt.

The first data set can be described thus: in vitro. The following applies: rat, gh3-tre-luc cells, AC50 (uM) modified / 1000.
In turn, `CCCCN1CCCC1C(=O)Nc1c(C)cc(C)cc1C` (centres unmarked) [Bumecaine] returned a CC50 at 24 h of over 50 µM.

`CCCCNc1cc(C(=O)O)cc(S(N)(=O)=O)c1Oc1ccccc1` [Bumetanide] came in with a cytotoxic concentration (CC50) at 24 h of over 20 µM.

Regarding `Cc1cc(-n2nc3ccc(Cl)cc3n2)c(O)c(C(C)(C)C)c1` [Bumetrizole], the CC50 at 24 h was over 50 µM.

`CCCCCCOc1ccc(C(=N)N(CCCC)CCCC)c2ccccc12` [Bunamidine hydrochloride]: half-maximal cytotoxicity (CC50 at 24 h) was put at 5.23 µM. This lies in the single-digit micromolar range.

`CCCC(=O)N1CCCN(c2nc(N)c3cc(OC)c(OC)cc3n2)CC1` [Bunazosin hydrochloride] returned a CC50 at 24 h of over 50 µM.

In turn, `CCCCc1c(C)nc(NCC)nc1OS(=O)(=O)N(C)C` [Bupirimate] gave a CC50 at 24 h of over 90 µM.

In turn, `CO[C@]12CC[C@@]3(C[C@@H]1[C@](C)(O)C(C)(C)C)[C@H]1Cc4ccc(O)c5c4[C@@]3(CCN1CC1CC1)[C@H]2O5` [Buprenorphine hydrochloride] came in with a cytotoxic concentration (CC50) at 24 h of 23.1 µM.

For `CC(C)N1C(=O)N(c2ccccc2)CS/C1=N\C(C)(C)C` [Buprofezin], half-maximal cytotoxicity (CC50 at 24 h) was put at 45.1 µM.

On to `CC(NC(C)(C)C)C(=O)c1cccc(Cl)c1` (centres unmarked) [Bupropion hydrochloride], for which the CC50 at 24 h was over 50 µM.

In the case of `CCOC(=O)c1cnc2cc(OCC(C)C)c(OCC(C)C)cc2c1O` [Buquinolate], the CC50 at 24 h is over 50 µM.

Compound `O=C1CC2(CCCC2)CC(=O)N1CCCCN1CCN(c2ncccn2)CC1` [Buspirone] returned a CC50 at 24 h of 89.7 µM. This counts as double-digit micromolar.

In turn, `CS(=O)(=O)OCCCCOS(C)(=O)=O` [Busulfan] displayed a CC50 at 24 h of over 90 µM.

With `CCCCN(CCCC)CCCOC(=O)c1ccc(N)cc1` [Butacaine], the CC50 at 24 h was over 20 µM.

In turn, `CCCCOCN(C(=O)CCl)c1c(CC)cccc1CC` [Butachlor] came in with a CC50 at 24 h of 49.4 µM.

Compound `CC(C)(C)[C@]1(O)CCN2C[C@H]3c4ccccc4CCc4cccc(c43)[C@@H]2C1` [Butaclamol hydrochloride] displayed a CC50 at 24 h of 22.9 µM.

Turning to `C=CCOC(=O)C(C)(C)OC(=O)c1cc(-n2c(=O)cc(C(F)(F)F)n(C)c2=O)ccc1Cl` [Butafenacil], the CC50 at 24 h is over 90 µM.

On to `CCCCNC(C)(C)[PH](=O)O` [Butafosfan], for which the CC50 at 24 h was over 50 µM.

In the case of `CC(C)N(Cc1ccccc1)C(=O)C(C)(C)C` [Butam], the CC50 at 24 h is over 90 µM.

`CCC(C(=O)OCCOCCN(CC)CC)c1ccccc1` (centres unmarked) [Butamirate citrate]: the half-maximal cytotoxic concentration (CC50) at 24 h is over 50 µM.

On to `C=C(C)C(=O)OCCCCOC(=O)C(=C)C` [Butane-1,4-diyl bis(2-methylprop-2-enoate)], for which the CC50 at 24 h is over 90 µM.

In the case of `CCCCS(=O)(=O)Cl` [Butane-1-sulfonyl chloride], the CC50 at 24 h is over 90 µM.

On to `O=C(O)CCC(=O)O` [Butanedioic acid], for which the CC50 at 24 h was over 90 µM.

Consider `CCCC(=O)O` [Butanoic acid], for which the CC50 at 24 h is over 100 µM.

Compound `CCCC(=O)OC(=O)CCC` [Butanoic anhydride] gave a CC50 at 24 h of over 90 µM.

The compound `CN(Cc1ccc(C(C)(C)C)cc1)Cc1cccc2ccccc12` [Butenafine] registered a CC50 at 24 h of 27.3 µM.

Take `CCC(C(=O)OCCN(CC)CC)c1ccccc1` (centres unmarked) [Butetamate]: the CC50 at 24 h was over 50 µM.

`OC(C#CCN1CCCC1)(c1ccccc1)c1ccccc1` [Butinoline] gave a CC50 at 24 h of 35.3 µM.

Regarding `NCC[C@H](O)C(=O)N[C@@H]1C[C@H](N)[C@@H](O[C@H]2O[C@H](CN)[C@@H](O)[C@H](O)[C@H]2N)[C@H](O[C@@H]2O[C@H](CO)C(O)[C@H]2O)[C@H]1O` (some centres unmarked) [Butirosin disulfate], the CC50 at 24 h is over 20 µM.

As for `Clc1ccc(CCC(Cn2ccnc2)Sc2c(Cl)cccc2Cl)cc1` (centres unmarked) [Butoconazole nitrate], the CC50 at 24 h was over 20 µM.

In the case of `CNC(=O)ON=C(C)C(C)S(C)(=O)=O` (centres unmarked) [Butoxycarboxim], the CC50 at 24 h is over 900 µM.

With `CCC(C)Nc1c([N+](=O)[O-])cc(C(C)(C)C)cc1[N+](=O)[O-]` (centres unmarked) [Butralin], the CC50 at 24 h came to 68.1 µM.

Compound `C#CC(C)N(C)C(=O)Nc1ccc(Cl)cc1` (centres unmarked) [Buturon] had a CC50 at 24 h of over 90 µM.

As to `CCCCOC(=O)c1ccccc1C(=O)OCC(CC)CCCC` (centres unmarked) [Butyl 2-ethylhexyl phthalate], the CC50 at 24 h was over 90 µM.

The compound `CCCCOC(=O)C(C)CC` (centres unmarked) [Butyl 2-methylbutyrate] showed a CC50 at 24 h of over 90 µM.

`CCCCOC(=O)CCS` [Butyl 3-mercaptopropionate] had a CC50 at 24 h of over 90 µM.

Compound `CCCCOC(=O)c1ccc(N)cc1` [Butyl 4-aminobenzoate] came in with a CC50 at 24 h of over 50 µM.

With `CCCCOC(=O)CCC(C)=O` [Butyl 4-oxopentanoate], the CC50 at 24 h was over 90 µM.

On to `CCCCOC(=O)[C@H](C)O` [Butyl (2S)-2-hydroxypropanoate], for which the CC50 at 24 h is over 90 µM.

`CCCCOC(C)=O` [Butyl acetate] returned a CC50 at 24 h of over 90 µM.

`C=CC(=O)OCCCC` [Butyl acrylate] yielded a CC50 at 24 h of over 90 µM.

Consider `CCCCOC(=O)c1ccccc1` [Butyl benzoate], for which the CC50 at 24 h is over 90 µM.

`CCCCOC(=O)CC#N` [Butyl cyanoacetate]: the half-maximal cytotoxic concentration (CC50) at 24 h is over 100 µM.

`CCCOCC(C)OCC(C)O` (centres unmarked) [Butyl dipropasol solvent] came in with a CC50 at 24 h of over 90 µM.

Regarding `CCCCOCC1CO1` (centres unmarked) [Butyl glycidyl ether], the CC50 at 24 h was over 90 µM.

`CCCCOC(=O)CO` [Butyl hydroxyacetate] returned a CC50 at 24 h of over 90 µM.

Compound `CCCCN=C=O` [Butyl isocyanate] registered a CC50 at 24 h of over 90 µM.

`CCCCOC(=O)C(C)O` (centres unmarked) [Butyl lactate] registered a CC50 at 24 h of over 90 µM.

`C=C(C)C(=O)OCCCC` [Butyl methacrylate] gave a CC50 at 24 h of over 90 µM.

Turning to `CCCCOC(=O)CC` [Butyl propionate], the CC50 at 24 h is over 90 µM.

The compound `C=CCCCCCCCCC(=O)OCCCC` [Butyl undec-10-enoate] registered a CC50 at 24 h of over 90 µM.

With `CCCCN` [Butylamine], the CC50 at 24 h is over 50 µM.

For the compound `CCSC(=O)N(CC(C)C)CC(C)C` [Butylate], the CC50 at 24 h is over 90 µM.

In turn, `COc1ccc(O)c(C(C)(C)C)c1` [Butylated hydroxyanisole] returned a CC50 at 24 h of over 90 µM.

For the compound `CCCCc1ccccc1` [Butylbenzene], the CC50 at 24 h is over 90 µM.

The compound `CCC1COC(=O)O1` (centres unmarked) [Butylene carbonate] displayed a cytotoxic concentration (CC50) at 24 h of over 90 µM.

For the compound `CCCCc1ccc2ccccc2c1S(=O)(=O)O` [Butylnaphthalenesulfonic acid sodium salt], the CC50 at 24 h is over 90 µM.

`CCCCOC(=O)c1ccc(O)cc1` [Butylparaben]: the CC50 at 24 h is over 50 µM.

In the case of `CCCCOC(=O)COC(=O)c1ccccc1C(=O)OCCCC` [Butylphthalyl butylglycolate], the CC50 at 24 h is over 90 µM.

For the compound `CCCC[N+]1(C)[C@@H]2CC(OC(=O)[C@H](CO)c3ccccc3)C[C@H]1[C@@H]1O[C@@H]12` (some centres unmarked) [Butylscopolammonium bromide], the CC50 at 24 h is over 50 µM.

Regarding `CCCC=O` [Butyraldehyde], the CC50 at 24 h was over 90 µM.

The same data set, now with this note: rat, gh3-tre-luc cells, AC50 (uM) modified / 1000, Tox21_110001=Tox21_111908; viability, 1 nM T3 present, 24 h.
The compound `CCCC(=O)OC(C(Cl)(Cl)Cl)P(=O)(OC)OC` (centres unmarked) [Butonate] yielded a CC50 at 24 h of over 50 µM.

The data set is the same for the next values; noted with them: rat, gh3-tre-luc cells, AC50 (uM) modified / 1000, Tox21_110001=Tox21_112890; viability, 1 nM T3 present, 24 h.
Take `CN(C)CCc1c[nH]c2ccc(O)cc12` [Bufotenine]: the CC50 at 24 h is over 90 µM.

Still in this data set, the particulars now being: rat, gh3-tre-luc cells, AC50 (uM) modified / 1000, Tox21_110001=Tox21_201173; viability, 1 nM T3 present, 24 h.
Regarding `CCCCOC(=O)c1ccccc1N` [Butyl anthranilate], the CC50 at 24 h was over 90 µM.

The same data set, now with this note: rat, gh3-tre-luc cells, AC50 (uM) modified / 1000, Tox21_110001=Tox21_201786; viability, 1 nM T3 present, 24 h.
Take `CCCC=NO` [Butanal oxime]: the CC50 at 24 h was over 90 µM.

The same data set, now with this note: rat, gh3-tre-luc cells, AC50 (uM) modified / 1000, Tox21_110001=Tox21_301263; viability, 1 nM T3 present, 24 h.
The compound `CCCCN(CCCCO)N=O` [Butyl-N-(4-hydroxybutyl)nitrosamine] showed a CC50 at 24 h of over 90 µM.
